Source: ChEMBL document CHEMBL4321836, “Discovery of BAY-298 and BAY-899: Tetrahydro-1,6-naphthyridine-Based, Potent, and Selective Antagonists of the Luteinizing Hormone Receptor Which Reduce Sex Hormone Levels in Vivo” (J Med Chem, 2019)

Legend:
[1] = molecular target: T1, Follicle-stimulating hormone receptor (Homo sapiens, UniProt P23945); experiment: Antagonist activity at human follicle stimulating hormone receptor assessed as reduction in agonist-induced cAMP production preincubated for 20 mins followed by agonist solution addition and measured after 120 mins by cell based TR-FRET assay; format: functional
T1 sequence (P23945 whole entry): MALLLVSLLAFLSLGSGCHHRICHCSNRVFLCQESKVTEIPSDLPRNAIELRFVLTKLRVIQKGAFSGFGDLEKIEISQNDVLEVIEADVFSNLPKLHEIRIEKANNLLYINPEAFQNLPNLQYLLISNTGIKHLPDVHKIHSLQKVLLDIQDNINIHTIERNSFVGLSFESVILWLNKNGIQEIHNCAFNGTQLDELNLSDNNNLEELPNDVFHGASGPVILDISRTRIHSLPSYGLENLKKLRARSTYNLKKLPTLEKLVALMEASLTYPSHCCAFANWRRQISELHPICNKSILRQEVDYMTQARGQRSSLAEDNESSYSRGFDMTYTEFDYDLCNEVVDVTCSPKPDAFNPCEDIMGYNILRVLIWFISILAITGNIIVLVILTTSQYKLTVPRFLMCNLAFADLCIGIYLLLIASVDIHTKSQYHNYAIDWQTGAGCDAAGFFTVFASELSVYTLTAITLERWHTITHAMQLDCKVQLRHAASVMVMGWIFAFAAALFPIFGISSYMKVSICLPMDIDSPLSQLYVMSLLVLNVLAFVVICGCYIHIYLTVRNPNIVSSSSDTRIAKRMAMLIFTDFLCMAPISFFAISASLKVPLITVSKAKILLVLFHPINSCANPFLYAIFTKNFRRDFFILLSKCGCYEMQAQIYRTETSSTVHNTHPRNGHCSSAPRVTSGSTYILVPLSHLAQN

[2] = species: Homo sapiens; experiment: Selectivity ratio of IC50 for human thyroid stimulating hormone receptor expressed in rat HTC133 cells to human luteinizing hormone receptor; format: cell-based
[3] = molecular target: T2, Adenosine receptor A2b (Homo sapiens) (UniProt P29275); experiment: Antagonist activity at human A2B receptor expressed in HEK293 cells at 10 uM after 10 mins by HTRF assay relative to control; format: cell-based; set-up: scale not given: the % may be the effect or the level left
T2 sequence (whole entry): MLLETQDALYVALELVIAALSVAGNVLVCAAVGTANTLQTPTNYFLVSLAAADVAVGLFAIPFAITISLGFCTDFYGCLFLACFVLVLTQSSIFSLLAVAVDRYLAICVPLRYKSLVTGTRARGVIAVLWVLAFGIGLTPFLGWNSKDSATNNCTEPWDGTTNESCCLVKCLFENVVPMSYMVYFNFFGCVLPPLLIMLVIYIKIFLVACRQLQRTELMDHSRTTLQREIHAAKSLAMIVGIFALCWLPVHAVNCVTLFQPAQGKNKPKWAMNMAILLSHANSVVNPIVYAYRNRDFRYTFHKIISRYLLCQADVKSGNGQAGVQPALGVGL

[4] = molecular target: T3, Alpha-1A adrenergic receptor (Homo sapiens) (UniProt P35348); experiment: Agonist activity at human alpha1A adrenergic receptor expressed in CHO-K1 cells at 10 uM by fluorimetric method relative to control; format: cell-based
T3 sequence (whole entry): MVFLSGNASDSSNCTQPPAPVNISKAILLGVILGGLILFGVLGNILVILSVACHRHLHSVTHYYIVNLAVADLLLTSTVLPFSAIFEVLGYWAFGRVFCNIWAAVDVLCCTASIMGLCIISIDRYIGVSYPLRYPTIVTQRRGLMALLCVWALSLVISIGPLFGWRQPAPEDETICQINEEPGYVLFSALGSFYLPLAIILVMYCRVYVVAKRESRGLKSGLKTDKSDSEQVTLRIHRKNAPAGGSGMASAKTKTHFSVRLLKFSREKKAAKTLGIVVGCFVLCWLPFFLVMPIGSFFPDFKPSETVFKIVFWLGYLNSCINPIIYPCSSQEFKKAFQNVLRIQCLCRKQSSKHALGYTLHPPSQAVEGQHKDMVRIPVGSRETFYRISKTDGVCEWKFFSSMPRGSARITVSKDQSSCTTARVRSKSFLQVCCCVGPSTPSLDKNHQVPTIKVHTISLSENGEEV

[5] = molecular target: Beta-2 adrenergic receptor (Homo sapiens) (UniProt P07550); experiment: Agonist activity at human beta2 adrenergic receptor expressed in CHO-K1 cells at 10 uM after 30 mins HTRF assay relative to control; format: cell-based
Beta-2 adrenergic receptor (Homo sapiens), sequence (P07550 whole entry, looked up): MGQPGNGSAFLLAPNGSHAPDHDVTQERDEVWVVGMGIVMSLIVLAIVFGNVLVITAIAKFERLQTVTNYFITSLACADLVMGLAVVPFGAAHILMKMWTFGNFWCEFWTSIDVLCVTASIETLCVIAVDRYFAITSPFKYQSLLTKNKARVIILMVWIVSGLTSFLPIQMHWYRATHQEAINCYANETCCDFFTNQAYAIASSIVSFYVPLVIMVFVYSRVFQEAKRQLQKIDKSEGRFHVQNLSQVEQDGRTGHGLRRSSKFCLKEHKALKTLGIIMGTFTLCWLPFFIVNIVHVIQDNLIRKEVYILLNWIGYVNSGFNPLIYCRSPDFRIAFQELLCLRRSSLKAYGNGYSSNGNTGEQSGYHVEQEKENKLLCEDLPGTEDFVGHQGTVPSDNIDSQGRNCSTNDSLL

[6] = molecular target: Cannabinoid receptor 1 (Homo sapiens) (UniProt P21554); experiment: Antagonist activity at human CB1 receptor expressed in CHO-K1 cells at 10 uM after 20 mins HTRF assay relative to control; format: cell-based; set-up: scale not given: the % may be the effect or the level left
Cannabinoid receptor 1 (Homo sapiens), sequence (P21554 whole entry): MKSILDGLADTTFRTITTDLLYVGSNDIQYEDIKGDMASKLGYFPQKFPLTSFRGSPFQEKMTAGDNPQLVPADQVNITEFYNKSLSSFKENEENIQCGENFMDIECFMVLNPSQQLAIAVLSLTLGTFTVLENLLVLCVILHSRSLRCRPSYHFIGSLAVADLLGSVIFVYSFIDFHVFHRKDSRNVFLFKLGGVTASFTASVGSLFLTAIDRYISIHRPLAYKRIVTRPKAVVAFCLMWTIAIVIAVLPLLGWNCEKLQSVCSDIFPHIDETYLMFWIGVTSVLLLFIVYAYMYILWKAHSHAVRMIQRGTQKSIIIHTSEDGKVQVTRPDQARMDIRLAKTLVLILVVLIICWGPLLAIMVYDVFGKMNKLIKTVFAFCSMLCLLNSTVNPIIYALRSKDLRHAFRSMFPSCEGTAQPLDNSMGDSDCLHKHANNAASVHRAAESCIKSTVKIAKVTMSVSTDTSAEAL

[7] = molecular target: Histamine H2 receptor (Homo sapiens) (UniProt P25021); experiment: Agonist activity at human histamine H2 receptor expressed in CHO-K1 cells at 10 uM after 30 mins by HTRF assay relative to control; format: cell-based
Histamine H2 receptor (Homo sapiens), sequence (P25021 whole entry): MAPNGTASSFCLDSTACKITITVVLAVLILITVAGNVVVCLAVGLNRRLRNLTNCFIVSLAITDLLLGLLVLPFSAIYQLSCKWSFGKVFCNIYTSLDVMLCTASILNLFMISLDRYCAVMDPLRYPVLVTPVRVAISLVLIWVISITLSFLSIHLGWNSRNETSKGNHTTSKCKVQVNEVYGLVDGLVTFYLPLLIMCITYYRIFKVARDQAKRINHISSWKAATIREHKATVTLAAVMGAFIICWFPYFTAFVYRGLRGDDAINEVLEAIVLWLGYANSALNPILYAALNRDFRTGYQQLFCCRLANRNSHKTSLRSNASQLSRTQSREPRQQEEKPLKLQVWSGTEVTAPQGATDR

[8] = molecular target: Kappa-type opioid receptor (Homo sapiens) (UniProt P41145); experiment: Antagonist activity at human kappa opioid receptor at 10 uM by Spectrophotometric method relative to control; set-up: scale not given: the % may be the effect or the level left
Kappa-type opioid receptor (Homo sapiens), sequence (P41145 whole entry): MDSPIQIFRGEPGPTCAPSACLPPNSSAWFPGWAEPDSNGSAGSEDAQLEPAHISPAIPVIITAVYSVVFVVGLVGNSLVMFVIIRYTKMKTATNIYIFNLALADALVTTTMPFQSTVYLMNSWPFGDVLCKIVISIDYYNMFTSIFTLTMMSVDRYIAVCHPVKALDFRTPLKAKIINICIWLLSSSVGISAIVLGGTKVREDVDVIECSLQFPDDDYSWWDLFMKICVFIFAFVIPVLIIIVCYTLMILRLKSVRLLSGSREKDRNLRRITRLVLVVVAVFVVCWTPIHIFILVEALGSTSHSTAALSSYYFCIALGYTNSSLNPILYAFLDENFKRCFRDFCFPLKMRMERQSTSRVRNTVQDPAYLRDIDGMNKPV

[9] = molecular target: T4, Prostaglandin E2 receptor EP3 subtype (Homo sapiens) (UniProt P43115); experiment: Antagonist activity at human EP3 receptor expressed in […] cells at 10 uM by spectrophotometric method relative to control; format: cell-based; set-up: scale not given: the % may be the effect or the level left
T4 sequence (whole entry): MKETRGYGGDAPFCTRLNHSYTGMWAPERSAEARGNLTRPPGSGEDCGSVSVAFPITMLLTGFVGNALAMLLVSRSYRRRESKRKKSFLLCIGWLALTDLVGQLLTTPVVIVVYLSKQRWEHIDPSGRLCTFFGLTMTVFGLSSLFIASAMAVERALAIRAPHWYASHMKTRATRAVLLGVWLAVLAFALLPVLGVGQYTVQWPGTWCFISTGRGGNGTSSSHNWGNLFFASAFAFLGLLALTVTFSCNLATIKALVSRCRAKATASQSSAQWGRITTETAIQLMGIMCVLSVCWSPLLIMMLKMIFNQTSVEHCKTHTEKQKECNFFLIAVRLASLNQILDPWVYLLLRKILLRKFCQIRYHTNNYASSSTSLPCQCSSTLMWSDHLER

[10] = molecular target: T5, 5-hydroxytryptamine receptor 1A (Homo sapiens) (UniProt P08908); experiment: Antagonist activity at human 5-HT1A receptor expressed in mouse BA/F3 cells at 10 uM by fluorimetric method relative to control; format: cell-based; set-up: scale not given: the % may be the effect or the level left
T5 sequence (whole entry): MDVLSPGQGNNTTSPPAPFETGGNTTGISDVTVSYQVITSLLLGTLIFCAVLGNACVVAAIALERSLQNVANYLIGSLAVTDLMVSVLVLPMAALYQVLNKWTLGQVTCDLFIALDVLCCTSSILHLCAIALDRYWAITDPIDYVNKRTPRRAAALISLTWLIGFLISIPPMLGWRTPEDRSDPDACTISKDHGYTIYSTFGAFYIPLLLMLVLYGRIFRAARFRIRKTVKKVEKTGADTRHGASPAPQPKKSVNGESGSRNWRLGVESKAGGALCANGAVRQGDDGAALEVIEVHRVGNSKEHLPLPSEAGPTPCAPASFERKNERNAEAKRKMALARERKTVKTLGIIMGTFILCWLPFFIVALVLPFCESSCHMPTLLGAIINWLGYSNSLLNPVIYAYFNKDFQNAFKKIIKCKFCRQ

IC50 [1] | Activity [3] | Activity [4] | Activity [5] | Activity [6] | Activity [7] | Activity [8] | Activity [9] | Activity [10] | SMILES | Ratio IC50 [2]
> 16 µM | < 70% | < 70% | < 70% | < 70% | < 70% | < 70% | < 70% | < 70% | O=C(Nc1cnc(Oc2ccc(F)cc2)nc1)N1CCc2ncccc2[C@@H]1c1ccc(F)cc1 [BAY-899] | > 100
> 16 µM | < 70% | < 70% | < 70% | < 70% | < 70% | < 70% | < 70% | < 70% | O=C(Nc1ccc(Oc2ccc(F)cc2)cc1)N1CCc2ncccc2[C@@H]1c1ccc(Cl)cc1 | 24
